The record followed here is paper PMC5980259, “GI‐530159, a novel, selective, mechanosensitive two‐pore‐domain potassium (K2P) channel opener, reduces rat dorsal root ganglion neuron excitability” (British Journal of Pharmacology, 2017).

Assay [1] addresses T1, human TREK1 single channels (Homo sapiens, UniProt O95069).
T1 construct: expressed in transfected cells
The assay can be described thus: Single-channel recording, excised inside-out patches from HEK293 cells. To be noted: 10 μM on intracellular side, +60 mV. The assay is classed as biochemical. As for the experimental part:
Human TREK1 single channels were recorded in excised inside‐out membrane patches using an Axopatch 200B patch‐clamp amplifier and pCLAMP 10 software. Inside‐out membrane patches were excised from HEK293 cells expressing human TREK1 channels. Sylguard® 184‐coated glass pipettes with resistance around 10–15 MΩ were used. Pipette and bath compositions for inside‐out patches were opposite to those used in voltage‐clamp, that is, the pipette solution on the extracellular face of the channels contained 130 mM K and the bath solution on the intracellular face of the channel contained 4.7 mM K. Channel activities were recorded at +60 mV. The action of a hTREK1 opener was tested by addition to the intracellular solution. Single‐channel records were filtered with an eight‐pole Bessel filter (model LHBF‐48X, npi electronic GmbH, Tamm, Germany) at a corner frequency (fc) of 2 kHz and acquired using a DigiData 1440A interface and pCLAMP 10 software at a sampling rate of 20 kHz. Single‐channel traces were generated without further filtering.

Another assay has as its target Kv7.1 (Homo sapiens, UniProt P51787). The assay can be described thus: Rb+ efflux assay, Kv7.1. In kind it is cell-based.
The next assay addresses Kv7.3 (Homo sapiens, UniProt O43525). The experiment in a line: Rb+ efflux assay, Kv7.3. In kind it is cell-based.
Assay [2] deals with T2, hTREK1 (Homo sapiens, UniProt O95069).
T2 sequence (O95069 1-426): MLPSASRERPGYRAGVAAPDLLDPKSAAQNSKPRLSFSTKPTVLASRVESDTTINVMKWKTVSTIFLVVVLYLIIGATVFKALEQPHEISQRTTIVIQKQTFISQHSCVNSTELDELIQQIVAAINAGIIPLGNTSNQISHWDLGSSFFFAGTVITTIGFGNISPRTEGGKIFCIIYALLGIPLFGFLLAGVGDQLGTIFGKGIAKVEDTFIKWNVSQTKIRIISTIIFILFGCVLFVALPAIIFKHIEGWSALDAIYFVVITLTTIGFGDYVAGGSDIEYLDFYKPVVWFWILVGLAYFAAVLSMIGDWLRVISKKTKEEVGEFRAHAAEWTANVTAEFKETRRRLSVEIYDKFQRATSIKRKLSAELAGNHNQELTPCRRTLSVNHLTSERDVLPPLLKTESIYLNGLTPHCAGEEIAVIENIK
The assay can be described thus: 86Rb efflux from CHO–hTREK1 cells. Conditions: 60 min exposure, fit of logistic equation. Details: expressed in transfected cells. In kind it is cell-based. As for the experimental part: CHO–hTREK1 cells were plated on 96‐well, tissue culture‐treated clear plates (92 696) the day before the assay and incubated overnight at 37°C in the presence of 1 μCi·mL^−1 86Rubidium (Rb, NEZ072, Perkin Elmer, Waltham MA, USA). Prior to commencement of the assay, the ^86Rb spiked media were removed from the plate, and cells were washed four times with 100 μL of a 5 mM K^+ ‘Earle's balance salt solution’ (EBSS) buffer containing 135 mM NaCl, 5.4 mM KCl, 1.8 mM CaCl2, 0.8 mM MgCl2,10 mM HEPES and 5 mM glucose, pH 7.4 (adjusted with NaOH). […] Both counting plates were then read on the Wallac Microbeta to measure ^86Rb content [counts per min (CPM)]. % ^86Rb efflux values were calculated as follows: ^86Rbefflux%cell content=CPMin efflux buffer/CPMin efflux buffer+CPMin cell lysate*100.
Magnitude of ^86Rb efflux stimulation was calculated as follows: %Activation=%efflux test well−efflux in5.4mMK^+EBSS/Efflux in70mMK^+EBSS−efflux in5.4mMK^+EBSS*100.
Half maximal activation of ^86Rb efflux (EC50) value was calculated using IDBS Xlfit using a four‐parameter logistic equation and expressed as mean ± SEM.

The target in assay [3] is T2, hTREK1. The experiment in a line: Automated whole-cell patch clamp (Qpatch), CHO–TREK1 cells. Details: expressed in transfected cells. To be noted: 1 μM; stably transfected CHO cells. In kind it is cell-based. As for the experimental part: Automated patch‐clamp studies were performed with the Qpatch Sophion Bioscience A/S (Ballerup, Denmark) automated patch‐clamp platform. Sixteen‐well Qplates were loaded with CHO cells stably expression human recombinant TREK1 (CHO–TREK1 cells) in external buffer containing (in mM) 148 NaCl, 5 KCl, 1 CaCl2, 1 MgCl2, 10 HEPES and 10 glucose. Internal recording solution was (in mM) 100 K gluconate, 40 KCl, 1 MgCl2, 10 BAPTA, 10 HEPES and 1 MgATP.
Supplementary Information
Supplementary Figure S1: Activation of hTREK1 current by GI-530159 in automated patch […]
Figure S1: Activation of hTREK1 current by GI-530159 in automated patch recordings.
A) Human TREK1 current elicited by pulse protocol shown recorded on Qpatch 16 automated patch clamp platform after administration of 0.1% DMSO vehicle, 1 µM GI-530159 or after washout with 0.1% DMSO. B) Time course of TREK1 current amplitude recorded at 0 mV on Qpatch platform before during and after washout of 1 µM GI-530159.
(1 picture or pasted object on this page, not shown here)

Consider `Nc1ccc(Oc2ccc(C(c3ccc(Oc4ccc(N)cc4)cc3)(C(F)(F)F)C(F)(F)F)cc2)cc1` [GI‐530159, 4,4′‐(hexafluoroisopropylidene)bis(p‐phenyleneoxy)dianiline], for which, in assay [1], the single-channel current amplitude entry is reported as “not altered”. In assay [1] (exemplar recording, 0.009 before application), this compound gave a channel open probability of 0.025. Moreover, at Kv7.1, the “activator effect on Kv7.1” value is reported as “no activator effects”. Moreover, the “activator effect on Kv7.3” value at Kv7.3 is “no activator effects”. Further, on hTREK1 [2] (read-out: EC50 for stimulation of 86Rb efflux), the EC50 was determined as 760 ± 100 nM. In addition, the Emax at hTREK1 [2] (normalized to 70 mM K, read-out: maximum effect on 86Rb efflux, % of that seen with 70 mM K) is 142 ± 2%. For the same compound, the “effect on hTREK1 current, Qpatch” value at hTREK1 [3] was “effective at reversibly enhancing current”.
